Data set [1] deals with LPS-stimulated IL-6 release. As to the kind of experiment: LPS-stimulated IL-6 release in human whole blood. The following applies: high concentrations. The format is cell-based. The protocol: Heparinized whole blood was collected from the Aorta abdominalis of WI (Han) male rats (Charles River Laboratories, Sulzfeld, Germany) and from healthy male human donors, and treated with 1 µL (rat) or 2.5 µL (human) of BI 1015550 or vehicle [final DMSO concentration 0.5% (v/v)]. Final assay volumes were 200 μL (rat) and 500 μL (human). After incubation for 30 min at 37°C, 95% humidity, and 5% CO2, cultures were treated with LPS [final concentration 10 µg/mL (rat), 0.1 µg/mL (human)] or saline. After 7 h, plates were centrifuged at 3.200 × g at 4°C for 10 min and plasma was used for cytokine measurement. Meso Scale Discovery (MSD) (Rockville, MD, United States) rat and human pro-inflammatory panels were used for detection of TNF-α and IL-6 in rat plasma [diluted 1:2 (v/v)]) and human plasma [negative control undiluted, other samples diluted 1:200 (v/v)] according to the manufacturer’s instructions.

For data set [2], the system named is LPS-induced TNF-α release in whole blood ex vivo. As to the kind of experiment: LPS-induced TNF-α release in whole blood ex vivo in mice. Details: species or system mouse. As for the experimental part:
BI 1015550 was suspended in H2O plus three equivalents’ HCl (i.e. 66 µL HCl per mg of drug substance) to concentrations of […]. Female NMRI mice from Charles River (25–30 g) were used. Either vehicle (H2O plus three equivalents’ HCl) or BI 1015550 was administered orally (by gavage) in a volume of 10 mL/kg body weight resulting in final doses of 3.0, 1.0, 0.1, and 0.01 mg/kg body weight. 2 h after administration, the animals were anesthetized and blood was drawn by retroorbital puncture with heparinized capillaries before sacrifice by cervical dislocation. Blood was collected in Lithium-Heparin Microvettes® for anticoagulation. 100 µL of whole blood was pipetted into an Eppendorf tube containing either LPS solution (final concentration 900 ng/mL) or solvent. Subsequently, the samples were placed for 4 h in an incubator at 37°C, […], and 95% humidity before plasma was prepared by a two-step centrifugation at 10.840 × g over 10 min at 4°C. TNF-α concentrations in the plasma samples were determined using a commercially available TNF-α ELISA kit (BD OptEIA™ Mouse TNF ELISA Set from Becton Dickinson) according to the manufacturer’s instructions.

Data set [3] has as its system bleomycin-challenged mice. The data set is described as follows: Therapeutic bleomycin mouse model of lung fibrosis. The format is in vivo. As for the experimental part:
Adult, test-naïve, male C57BL6/6J mice, aged 10–12 weeks from Charles River were used (weight 25–27 g). The model was performed essentially as described by [Ackermann et al. (2017)]. Briefly, bleomycin 1 mg/kg (Calbiochem, Darmstadt, Germany) was administered intratracheally in an application volume of 2 mL/kg body weight. Animals were weighed daily. […] BI 1015550 (at final doses of 2.5 and 12.5 mg/kg) was applied by oral gavage using a dose volume of 10 mL/kg twice daily (b.i.d.) from day 8 until day 13. On day 12, animals were anesthetized using 3–4% isoflurane, and lung density was assessed by micro-computed tomography (µCT) analysis with a Quantum FX µCT system (Perkin Elmer) with cardiac gating (without respiratory gating). Images were analyzed using MicroView 2.0 software (GE Healthcare). The Hounsfield unit (HU) corresponding to the peak of the HU-histogram for the segmented pixels was used as a measure of fibrosis. After µCT analysis, animals were allowed to awaken from anesthesia. On day 14, lung function [pressure-volume loops, FVC, and static lung compliance (Cstat)] was measured with a FlexiVent system (SCIREQ, Montreal, PQ, Canada). After the lung function measurement, animals were sacrificed by an overdose of Narcorene and lungs were lavaged with two-times 0.8 mL of PBS. BALF was used to determine differential cell counts (Sysmex XT-1800iVet) and the number of monocytes. Left lung lobes were fixed with 4% paraformaldehyde and inflated under 20 cm water pressure for 20 min. Samples were embedded in paraffin, sectioned (3 μm thickness), and stained for hematoxylin and eosin (HE) and Masson’s trichrome to assess general morphology and fibrotic change following standard histopathology operating protocols. Images were taken with an AxioCam MRm microscope camera using AxioVision software (Carl Zeiss Microscopy, LLC, White Plains, NY, United States). Lung sections stained with Masson’s trichrome were assessed for severity of pulmonary fibrosis using the Ashcroft score. The protocol used is therapeutic, i.e. treatment commenced at a time where lung fibrosis should have developed, in line with the recommendations of the American Thoracic Society panel on IPF models ([Jenkins et al., 2017]).

The nature of data set [4]: Off-target screening, Cerep high-throughput profile and non-kinase enzyme profile.
The mark [5] stands for this setting: mice, 2.5 mg/kg b.i.d. oral day 8 to day 13, measured day 14.
Where [6] appears, read: mice, 12.5 mg/kg b.i.d. oral day 8 to day 13, measured day 14, 12.5 mg/kg.

Marks after values point to notes of the source that are not given here.

For the compound `[O-][S+]1CCc2nc(N3CCC(c4ncc(Cl)cn4)CC3)nc(NC3(CO)CCC3)c21` (stereo not shown) [BI 1015550], the IL-6 increase result in data set [1] is listed as “did not result in an IL-6 increase”. Moreover, the “Maximum inhibition of IL-6 release” value in data set [1] is 30–40%. Moreover, the results for the “TNF-α concentration in plasma, inhibition in % given as negative number” value in data set [2] (0.01 mg/kg p.o.), in data set [2] (0.1 mg/kg p.o.) and in data set [2] (1.0 mg/kg p.o.) were −38%, −50% and −83%, respectively. For the same compound, the “Inhibition of TNF-α” value in data set [2] (3 mg/kg oral, initial experiment, data not shown) amounted to 93%. For the same compound, the “ED50 of LPS-induced TNF-α release” value in data set [2] (oral, blood taken 2 h after administration, LPS 4 h) came to 0.04 mg/kg. In addition, the “Effect on BALF protein and monocytes, airway compliance” value in data set [3] (bleomycin mice) was “no effects”. Moreover, the “Effect on weight gain” value in data set [3] (bleomycin mice, data not shown) is on record as “no significant effect”. Besides, the “Fibrosis < score, % improvement compared to bleomycin control” value worked out at 2% in data set [3] (mice, 2.5 mg/kg b.i.d. oral day 8 to day 13) and 11% in data set [3] (mice, 12.5 mg/kg b.i.d. oral day 8 to day 13). Also, the results for the “Cstat (mL/cm H2O), % improvement compared to bleomycin control” value in data set [3] (setting [5]) and in data set [3] (setting [6]) were 21% and 40* %, respectively. Further, the entries for the “FVC (mL), % improvement compared to bleomycin control” value in data set [3] (setting [5]) and in data set [3] (setting [6]) were 18% and 41%, respectively. Further, the “Ratio tissue density, % improvement compared to bleomycin control” value in data set [3] (mice, 2.5 mg/kg b.i.d. oral day 8 to day 13, µCT) came to 4%; in data set [3] (mice, 12.5 mg/kg b.i.d. oral day 8 to day 13, µCT), 39%. Further, in data set [3] (mice, higher dose (12.5 mg/kg b.i.d.), p < 0.05), the “Improvement in PV loops” value was 40%. In addition, the Off-target effects result in data set [4] was “not shown any other off-target effects”.

The values are drawn from PMC9065678, “BI 1015550 is a PDE4B Inhibitor and a Clinical Drug Candidate for the Oral Treatment of Idiopathic Pulmonary Fibrosis” (Frontiers in Pharmacology, 2022).
